In patent publication US20040044405A1, “Vascular stent or graft coated or impregnated with protein tyrosine kinase inhibitors and method of using same” (priority 2001, published 2004):

Key:
PKC = details: cited from earlier work
[1] = system: human coronary artery vascular smooth muscle cells; test: DNA synthesis in human coronary artery vascular smooth muscle cells, BrdU assay; assay type: cell-based; details: 10% FBS for 48 hours, FIG. 4
[2] = system: Porcine aortic vascular endothelial cells; test: Porcine aortic vascular endothelial cell proliferation, BrdU incorporation ELISA after VEGF stimulation; assay type: cell-based; details: VEGF 20 ng/mL for 24 hours, STI-571, FIG. 2
Method: Porcine aortic vascular endothelial cells were grown to subconfluence in 96-well plates with DME media containing 10% FBS at 37° C. for 3 to 5 days. […] BrdU was added to the wells for the last 5 hours of the stimulation period. The cells were subsequently dried for 24 hours at 60° C., fixed and denatured, and BrdU incorporation determined using the Roche ELISA described in Example 1.

[3] = system: human coronary artery vascular smooth muscle cells; test: Migration of human coronary artery vascular smooth muscle cells through porous membrane in response to PDGF; assay type: cell-based; details: PDGF-ββ 20 ng/ml, 24 hrs, normalized to control membranes, FIG. 5
Method: Migration was assayed by counting cells that migrated through a porous membrane (20 μm diameter pores) in 24 hours in response to stimulation with platelet-derived growth factor (PDGF-pp).
The initial seed density was 4000 cells per filter (0.3 cm^2) in test media with 1% BSA and 20 ng/ml PDGF-ββ. The cells were then incubated in a humidified environment at 37° C., 5% CO2 for 24 hrs. The cells on the top side of the filter were then scraped away. The cells on bottom side of the filters were then fixed with ice-cold methanol for 10 min. The filters were rinsed with PBS and then stained with HarrisAE Hematoxylin stain for 5 min. and again rinsed with PBS.
The cells were then counted manually under high-power magnification (400×) in quadruplicate.

Porcine coronary VSMCs = test: Porcine coronary VSMC proliferation, BrdU incorporation ELISA after PDGF stimulation; assay type: cell-based; details: PDGF 20 ng/mL, STI-571, FIG. 1
Method: BrdU was added to the wells for the last 5 hours of the stimulation period.

Structure (SMILES)	inhibitory activity / specificity towards PKC (PKC)	DNA synthesis in human coronary artery vascular smooth muscle cells (BrdU incorporation) [1]	proliferation of aortic vascular endothelial cells (BrdU incorporation) [2]	migration of human coronary vascular smooth muscle cells [3]	proliferation of VSMCs (BrdU incorporation) (Porcine coronary VSMCs)
O=C1NC(=O)c2cc(Nc3ccccc3)c(Nc3ccccc3)cc21 [CGP5211]	some inhibitory activity				
O=C1NC(=O)c2cc(Nc3ccc(F)cc3)c(Nc3ccc(F)cc3)cc21 [CGP53353]	lower specificity towards PKC isozymes				
Cc1ccc(NC(=O)c2ccc(CN3CCN(C)CC3)cc2)cc1Nc1nccc(-c2cccnc2)n1 [STI-571]		inhibits DNA synthesis	very minimal inhibitory effect	inhibits the migration of human coronary vascular smooth muscle cells in a dose-dependent fashion	inhibited the proliferation of VSMCs in a dose-dependent fashion
